Structures can show the parent of a compound that is named as a salt.

T1 sequence (P50406 whole entry): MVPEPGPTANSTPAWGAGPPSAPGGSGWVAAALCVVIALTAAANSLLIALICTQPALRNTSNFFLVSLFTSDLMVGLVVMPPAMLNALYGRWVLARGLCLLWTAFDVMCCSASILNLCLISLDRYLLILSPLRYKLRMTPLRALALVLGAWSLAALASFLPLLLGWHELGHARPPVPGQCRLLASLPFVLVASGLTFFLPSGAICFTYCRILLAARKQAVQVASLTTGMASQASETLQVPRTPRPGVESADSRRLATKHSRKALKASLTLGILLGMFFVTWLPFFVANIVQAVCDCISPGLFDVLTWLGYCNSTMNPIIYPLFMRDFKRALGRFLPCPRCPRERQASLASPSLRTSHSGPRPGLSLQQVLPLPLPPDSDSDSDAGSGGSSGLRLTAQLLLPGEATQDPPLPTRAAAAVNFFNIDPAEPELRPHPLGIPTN
T2 sequence (P14416 whole entry): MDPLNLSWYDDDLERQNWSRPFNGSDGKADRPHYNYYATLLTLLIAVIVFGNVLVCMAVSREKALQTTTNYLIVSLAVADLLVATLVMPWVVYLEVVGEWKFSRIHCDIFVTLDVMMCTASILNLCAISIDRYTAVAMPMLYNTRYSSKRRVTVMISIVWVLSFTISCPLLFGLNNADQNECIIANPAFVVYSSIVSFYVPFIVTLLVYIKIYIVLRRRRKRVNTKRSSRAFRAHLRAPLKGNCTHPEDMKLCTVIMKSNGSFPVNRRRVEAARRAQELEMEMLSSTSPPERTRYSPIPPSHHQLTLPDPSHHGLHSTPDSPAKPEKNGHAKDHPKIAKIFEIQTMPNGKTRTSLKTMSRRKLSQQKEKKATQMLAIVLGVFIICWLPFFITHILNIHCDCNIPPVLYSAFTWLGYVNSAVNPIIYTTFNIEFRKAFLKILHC

One assay concerns the target T1, h-5-HT6 receptor (Homo sapiens, UniProt P50406).
T1 construct: expressed in transfected cells
Briefly: 5-HT6 receptor binding assay (displacement of [3H]-LSD). The settings on record: membranes of HEK293 cells expressing h-5-HT6 receptor, 1 nM [3H]-LSD. As for the experimental part: Displacement of radioligands binding to the following cloned human receptors
Cells from stable clonal cell lines expressing the corresponding receptor (5-HT6, α1-adrenergic, dopamine D2 or histamine H1 receptors) were washed with PBS (w/o Ca^++, Mg^++) and harvested in PBS with 0.02% EDTA. The cells were collected by centrifugation at 500 g for 10 min. at 4° C., washed with PBS and centrifuged (500 g, 10 min. 4° C.). The pellets were stored at −80° C. until use. For membrane preparation, the thawed cell pellet was resuspended in ice-cold sucrose buffer (0.25 M sucrose, 10 mM Hepes (pH 7.4), 1 mM Phenylmethylsulfonyl fluoride (PMSF) in DMSO, 5 μg/ml Pepstatin-A, 3 mM EDTA, 0.025% Bacitracin) and homogenized with a Branson Sonifier W-250 (Settings: Timer 4; Output Control 3; Duty Cycle constant; 2 to 3 cycles). Cell disruption was checked with the aid of a microscope. Remaining unbroken cells were pelleted at 1.000 g for 10 min. at 4° C. The sucrose buffer supernatant was then centrifuged at 60.000 g for 1 h at 4° C. (Beckman Ultrazentrifuge XL 80). The pellet was resuspended in 30 ml ice-cold Tris buffer (20 mM TRIS (pH 7.4), 5 μg/ml Pepstatin A, 0.1 mM PMSF, 3 mM EDTA) by pipetting through a 10 ml serological pipet and centrifuged for 1 h at 4° C. at 60.000 g. A final resuspension was performed in a small volume of ice-cold Tris buffer (see above) by pressing through a serological pipet followed by ultrasonic treatment with a Branson Sonifier W-250 (Settings: Timer 1; Output Control 3; Duty Cycle constant; 1 cycle). Protein concentration was determined (BCA-Kit; Pierce) and aliquots stored at −80° C. or in liquid nitrogen for long-term storage.
All receptor binding experiments were carried out in the corresponding assay buffer in a total volume of 200 μl in the presence of various concentrations of test compound (10^−5 M to 10^−9 M, tenfold serial dilution, duplicate determinations). The assays were terminated by filtration on polyethylenimine (PEI 0.1% or 0.3%) presoaked Packard Unifilter Plates (GF/C or GF/B) with a Tomtec MachIII U 96 well-plate harvester. After the plates had been dried for 2 h at 55° C. in a drying chamber scintillation cocktail (BetaPlate Scint; PerkinElmer) was added. Radioactivity was measured in a Microbeta Trilux two hours after the addition of the scintillation mixture. Data derived from liquid scintillation counting were analysed by iterative non-linear regression analysis with the use of the Statistical Analysis System (SAS): a program similar to “LIGAND” as described by Munson and Rodbard (Analytical Biochemistry 107, 220-239 (1980).
HEK293 cells stably expressing the h-5-HT6 receptor (NCBI Reference Sequence XM 001435) were cultured in RPMI1640 medium supplemented with 25 mM HEPES, 10% fetal calf serum and 1-2 mM glutamine. The membrane preparation was performed as described in section 1. […] Non-specific binding was defined with 1 μM methiothepin. The binding reaction was carried out for 3.5 h at room temperature. During the incubation, the plates were shaken on a plate shaker at 100 rpm and terminated by filtration on Packard Unifilter GF/C (0.1% PEI) plates, followed by 2 wash cycles with ice-cold 50 mM Tris-HCl, 5 mM CaCl2.
Data derived from liquid scintillation counting were analyzed by iterative non-linear regression analysis with the use of the Statistical Analysis System (SAS): a program similar to “LIGAND” as described by Munson and Rodbard (Anal. Biochem. 1980, 107, 220-239). Fitting was performed according to formulae described by Feldman (Anal. Biochem. 1972, 48, 317-338). IC50, nH and Ki values were expressed as geometrical mean.
(In general: Loss of bound radioactivity is the signal in a displacement assay; it reports binding, not function.)
`COc1ccc(S(=O)(=O)Nc2cc(C)ccc2OC(F)F)cc1C1CCNCC1` [Example 4, N-(2-Difluoromethoxy-5-methyl-phenyl)-4-methoxy-3-piperidin-4-yl-benzenesulfonamide hydrochloride]: the inhibition constant (Ki) is less than 10 nM. `COc1ccc(S(=O)(=O)Nc2cc(C)ccc2OC(F)F)cc1C1CCN(C)C1` (centres unmarked) [Example 2, N-(2-Difluoromethoxy-5-methyl-phenyl)-4-methoxy-3-(1-methyl-pyrrolidin-3-yl)-benzenesulfonamide hydrochloride] showed a Ki of less than 10 nM. On the same count and under the same terms, the value for `COc1ccc(S(=O)(=O)Nc2cc(C)ccc2OC(F)F)cc1C1CCNC1` (centres unmarked) [Example 1, N-(2-Difluoromethoxy-5-methyl-phenyl)-4-methoxy-3-pyrrolidin-3-yl-benzenesulfonamide hydrochloride] was less than 10 nM; that for `COCc1ccccc1NS(=O)(=O)c1ccc(OC)c(C2CCNCC2)c1` [Example 6, 4-Methoxy-N-(2-methoxymethyl-phenyl)-3-piperidin-4-yl-benzenesulfonamide hydrochloride] was less than 100 nM.

Compound `COc1ccc(S(=O)(=O)Nc2ccc(C)cc2OC(F)F)cc1C1CCNCC1` [Example 5, N-(2-Difluoromethoxy-4-methyl-phenyl)-4-methoxy-3-piperidin-4-yl-benzenesulfonamide hydrochloride] came in with an inhibition constant Ki of less than 20 nM. Still for that read-out and setting: the value for `COCc1ccccc1NS(=O)(=O)c1ccc(OC)c(C2CCNC2)c1` (centres unmarked) [Example 3, 4-Methoxy-N-(2-methoxymethyl-phenyl)-3-pyrrolidin-3-yl-benzenesulfonamide hydrochloride] was less than 20 nM.

In the case of `COc1ccc(S(=O)(=O)Nc2cc(C)ccc2OC(F)F)cc1C1CCN(C)CC1` [Example 7, N-(2-Difluoromethoxy-5-methyl-phenyl)-4-methoxy-3-(1-methyl-piperidin-4-yl)-benzenesulfonamide hydrochloride], the inhibition constant (Ki) was less than 10 nM.

Another assay has as its target T2, dopamine D2 receptor (Homo sapiens, UniProt P14416).
T2 construct: expressed in transfected cells
Briefly: Dopamine D2 receptor binding assay (displacement of [125I]-iodospiperone). To be noted: saturation binding experiments, HEK293 D2 membranes; read-out: KD of radioligand. Here is the method: The pellets were stored at −80° C. until use. […] (Beckman Ultrazentrifuge XL 80).
Non-specific binding was defined with 1 μM haloperidol.
With iodospiperone [[^125I]-iodospiperone], the dissociation constant (Kd) was determined as 0.22 nM.

The term Ki denotes the equilibrium dissociation constant of an inhibitor or competing ligand from its target. A high value points to lower affinity. For orientation: Kd means the constant that tells how readily two partners part at equilibrium.

Values taken from US8772313B2, “Benzenesulfonyl or sulfonamide compounds suitable for treating disorders that respond to the modulation of the serotonin 5-HT6 receptor” (Abbott Laboratories, priority 2010, dated 2014).
